Data: patent US4619943A, “Neolignans of Saururus cernuus L and analogues thereof” (priority 1984, dated 1986)
Converted amounts (≈) assume the structure as drawn. “And” between values parts separate entries of the source, which are not always exact repeats. Equal entries are not always repeated. “Also recorded” adds a separate entry of the source.

Legend:
[1] = Morphine antagonism (Straub tail phenomenon); settings: SC-8 1.5 mg/Kg, morphine sulfate 20 mg/Kg ip
[2] = tested on: mosquito larvae (Aedes aegypti); test: Mosquito larvae test; type: in vivo; settings: 24 hours
Description: Similarly, in a test using mosquito larvae (Aedes aegypti) as the insect test species, SC-7 gave 15% mortality and SC-8 gave 93% mortality at an application rate of 100 ppm. In this test, one ml of a solution of 1000 ppm of the test compound in 10% acetone - 90% water was added to 9 ml of water in a culture tube. Ten mosquito larvae were added, and mortality readings were taken 24 hours later.

Meloidogyne incognita = test: Nematicidal test: galls on tomato root system; type: in vivo; settings: 10 days
Description: Juveniles of the nematode Meloidogyne incognita were placed in 10 ml vials containing 5 ml of sand each and were soaked with 3 ml of solutions of the test compound at different concentrations in 1% ethanol in water for 24 hours. Tomato seedlings (4-6" high, with roots partly trimmed) were placed in the vials which were then placed in a growth chamber at 28° for 10 days. The tests were watered as needed to keep the sand moist. After 10 days, the plants were removed, and the galls counted on each root system. Each sample was tested in replicates of 10, and the results were analyzed according to Duncan's multiple range test ([…]). The results for SC-8 are shown in Tables 3 and 4 which represent two different experiments spaced approximately two months apart. In the later test (Table 4), the amount of ethanol in the test solutions was varied.

M. incognita = test: Effect on nematode motility; type: in vivo, Meloidogyne incognita; settings: 24 hours, of 300 juveniles; for Number of Motile Nematodes, Avg.: water 233.6
Description: In a separate test, 300 juveniles of M. incognita were placed in a container closed with a screen of openings 17 μm and exposed to various concentrations of the test compound. After 24 hours, the number of nematodes able to migrate downward (from the inverted container) were counted. Eight replicates were run for each sample, and the results were analyzed by Duncan's

[3] = Acute toxicity (LD50) in mice, procedure of Turner; type: in vivo, male Swiss mice; settings: mouse, in vivo, ip; mice, intraperitoneal, 24 hours
Solubility = type: physicochemical
mice = test: Behavioral assay in mice (Campbell and Richter), sixteen behavioral signs; type: in vivo; settings: injected, after 30 minutes
Description: The behavioral assay in mice was carried out using the procedures of Campbell and Richter (D. E. S. Campbell and W. Richter, Acta Pharmacol. et Toxicol. 25, 345 (1967)). The method involved injection of five mice with the drug and obseving for sixteen behavioral signs after 30 minutes. A recognizable pattern will be apparent, characteristic of various CNS-activities: sympathomimetic, tranquilizer, etc.
Ten male Swiss mice (20-25 g) were divided into groups. One group was injected with physiological saline to serve as control. The other group was injected with 15 mg/Kg of benzene-partition sample (prepared as in Example 2) in suspension form (0.6 mg/ml) in physiological saline solution containing 0.5% carboxymethylcellulose. […] These are all considered as indicators of neuroleptic activity.

[4] = Suppression of aggressiveness in isolated mice; type: in vivo, male Swiss mice; settings: eighty minutes after injection; for % Inhibition of Aggressiveness: 2 mg/Kg
Description: They were not disturbed except for replacement of food. Under these conditions, about two thirds of the mice became aggressive as manifested by vicious attacks within one minute on a nonisolated male mouse placed in their cage. Such combative mice were divided into two groups. With one group held as the control, the mice in other group were injected with SC-8 at 2 or 1 mg/Kg. The mice were tested for aggressiveness before the injection and eighty minutes after the injection. If no fighting took place with a nonisolated mouse introduced into the cage, this was regarded as inhibition of aggressiveness (P. A. J. Janssen, A. H. Jageneau and C. J. E. Niemegeers; J. Pharmacol, Exp. Ther. 129, 471 (1960)). The experiment was repeated with SC-8 at 2 mg/Kg.

Pimephales promelas = test: Acute toxicity to fish; type: in vivo; settings: for % Mortality, Avg / % Mortality, single replicates (1 to 6): 2 hours; for % Mortality, single replicates (1 to 6): 120 min
Description: Many compounds having insecticidal activity also show toxicity to fish. For example, rotenoids, pyrethrins, and DDT have significant toxicity to fish. For this reason, fish have been used frequently to indicate potential insecticidal activity. The present compounds were tested for acute toxicity to fish by the method described in "Methods For Acute Toxicity Tests With Fish, Macro-Invertebrates and Amphibians", EPA 660/3-75-009, Committee on Methods for Toxicity Tests With Aquatic Organisms, Environmental Protection Agency, Corvallis, OR, 1975.
The fish, commonly known as Missouri minnows or fat heads (Pimephales promelas, family, cyprinidae) were purchased from a local hatchery and equilibrated to the new surroundings for 24 hours. They were kept in deionized water, previously adjusted to pH 6.5 with phosphate buffer at 23° C. Sufficient oxygen was provided, and the fish were deprived of food during the test period.
Groups of six fish were placed in containers with different concentrations of the test compound. The percent mortality was recorded every 30 minutes. The LC 50 values (mg/L) and 95% confidence limits were determined from the percent mortality data after 2 hours of exposure from 6 separate replicates using the method of Lichfield and Wiloxon [(J. Pharmacology and Exp. Therepeutics, 96, 99-113 (1949))].

## COc1ccc(C(O)C(C)Oc2ccc([C@@H]3O[C@@H](c4ccc(OC(C)C(O)c5ccc(OC)c(OC)c5)c(OC)c4)[C@@H](C)[C@@H]3C)cc2OC)cc1OC (stereo partly drawn) [SC-8, 2α,5β-bis[3-methoxy-4-{threo-3-hydroxy-3-(3,4-dimethoxyphenyl)}isopropoxyphenyl]-3α,4β-dimethyltetrahydrofuran]
[1]
  effect on morphine-induced Straub tail: counteracted this effect
[1]; before SC-8 40°
  Degree of Tail Elevation, After 20 min.: 10 °
  Degree of Tail Elevation, After 50 min.: 10 °
[2]
  mortality at 100 ppm: 93%
Meloidogyne incognita; Table 3, 1 ppm, 1% ethanol
  Number of Galls/Root System, single replicates (1 to 10): 17 (2×) and 13 and 20 and 21 and 24 and 3 and 28 and 40 and 16
Meloidogyne incognita; Table 3, 1 ppm, 1% ethanol, 1% ethanol control 23.7, water 28.8
  Number of Galls/Root System, Avg.: 19.8
Meloidogyne incognita; Table 3, 5 ppm, 1% ethanol
  Number of Galls/Root System, single replicates (1 to 10): 26 and 34 and 3 and 0 (2×) and 19 and 24 and 4 and 14 and 13
Meloidogyne incognita; Table 3, 5 ppm, 1% ethanol, 1% ethanol control 23.7, water 28.8
  Number of Galls/Root System, Avg.: 13.7
Meloidogyne incognita; Table 3, 10 ppm, 1% ethanol
  Number of Galls/Root System, single replicates (1 to 10): 14 (2×) and 17 and 18 and 1 and 2 and 42 and 29 and 3 and 7
Meloidogyne incognita; Table 3, 10 ppm, 1% ethanol, 1% ethanol control 23.7, water 28.8
  Number of Galls/Root System, Avg.: 14.7
Meloidogyne incognita; Table 3, 25 ppm, 1% ethanol
  Number of Galls/Root System, single replicates (1 to 10): 3 and 10 and 11 and 18 and 17 (2×) and 26 and 15 and 12 and 24
Meloidogyne incognita; Table 3, 25 ppm, 1% ethanol, 1% ethanol control 23.7, water 28.8
  Number of Galls/Root System, Avg.: 15.3
Meloidogyne incognita; Table 3, 50 ppm, 1% ethanol
  Number of Galls/Root System, single replicates (1 to 10): 12 (3×) and 15 and 16 (2×) and 20 and 21 and 18 and 7
Meloidogyne incognita; Table 3, 50 ppm, 1% ethanol, 1% ethanol control 23.7, water 28.8
  Number of Galls/Root System, Avg.: 14.9
Meloidogyne incognita; Table 4, 1 ppm, 0.01% ethanol
  Number of Galls/Root System, single replicates (1 to 10): 7 and 10 and 18 and 14 and 23 and 32 and 1 and 5 and 16 and 9
Meloidogyne incognita; Table 4, 1 ppm, 0.01% ethanol, water 25.5
  Number of Galls/Root System, Avg.: 13.5
Meloidogyne incognita; Table 4, 5 ppm, 0.05% ethanol
  Number of Galls/Root System, single replicates (1 to 10): 7 and 36 and 17 and 18 and 25 and 6 and 14 and 16 and 11
Meloidogyne incognita; Table 4, 5 ppm, 0.05% ethanol, water 25.5
  Number of Galls/Root System, Avg.: 16.7
Meloidogyne incognita; Table 4, 10 ppm, 0.1% ethanol
  Number of Galls/Root System, single replicates (1 to 10): 10 and 22 and 34 and 23 and 25 and 26 and 24 and 0
Meloidogyne incognita; Table 4, 10 ppm, 0.1% ethanol, water 25.5
  Number of Galls/Root System, Avg.: 18.4
Meloidogyne incognita; Table 4, 25 ppm, 0.25% ethanol
  Number of Galls/Root System, single replicates (1 to 10): 1 and 8 and 30 and 2 and 28 and 7 and 14
Meloidogyne incognita; Table 4, 25 ppm, 0.25% ethanol, water 25.5
  Number of Galls/Root System, Avg.: 10.1
Meloidogyne incognita; Table 4, 50 ppm, 0.5% ethanol
  Number of Galls/Root System, single replicates (1 to 10): 12 and 4 and 0 and 22 and 8 and 1 and 5 and 34
Meloidogyne incognita; Table 4, 50 ppm, 0.5% ethanol, water 25.5
  Number of Galls/Root System, Avg.: 8.6
M. incognita; 1 ppm
  Number of Motile Nematodes, single replicates (1 to 8): 258 and 233 and 186 and 340 and 295 and 248 and 103 and 238
  Number of Motile Nematodes, Avg.: 237.6
M. incognita; 5 ppm
  Number of Motile Nematodes, single replicates (1 to 8): 113 and 294 and 223 and 236 and 264 and 256 and 205 and 211
  Number of Motile Nematodes, Avg.: 225.3
M. incognita; 10 ppm
  Number of Motile Nematodes, single replicates (1 to 8): 188 and 170 and 174 and 263 and 204 and 214 and 228
  Number of Motile Nematodes, Avg.: 201.4
M. incognita; 25 ppm
  Number of Motile Nematodes, single replicates (1 to 8): 67 and 85 and 97 and 56 and 99 and 120 and 131 and 84
  Number of Motile Nematodes, Avg.: 92.4
M. incognita; 50 ppm
  Number of Motile Nematodes, single replicates (1 to 8): 163 and 223 and 109 and 102 and 31 and 232 and 225 and 108
  Number of Motile Nematodes, Avg.: 149.1
[3]
  LD50 at 24 h: 5.2 ± 0.2 mg/kg
Solubility; alcohols, acetone, chloroform, benzene, ethyl acetate
  solubility in alcohols, acetone, chloroform, benzene and ethyl acetate: readily soluble
Solubility; ether
  solubility in ether: sparingly
Solubility; hexane or water
  solubility in hexane or water: very slightly
mice
  behavioral signs: head drop with righting reflex; also recorded: decreased locomotion; also recorded: abduced hindlegs with righting reflex; also recorded: unsteady gait; also recorded: catalepsy
mice; from 37°
  lowering of body temperature from 37° to: 31 °
[4]; 1 mg/Kg, 3 mice
  Inhibition of Aggressiveness (in words): Slight
[4]; 3 mice
  % Inhibition of Aggressiveness: > 75%
[4]; 5 mice, repeat experiment
  % Inhibition of Aggressiveness: > 75%
Pimephales promelas; 0.13 mg/L
  % Mortality, Avg: 9%
  % Mortality, single replicates (1 to 6): 0% (3×) and 17% (3×)
Pimephales promelas; 0.25 mg/L
  % Mortality, Avg: 28%
  % Mortality, single replicates (1 to 6): 33% (4×) and 17% (2×)
Pimephales promelas; 0.38 mg/L
  % Mortality, Avg: 50%
  % Mortality, single replicates (1 to 6): 67% and 50% (4×) and 33%
Pimephales promelas; 0.5 mg/L
  % Mortality, Avg: 64%
  % Mortality, single replicates (1 to 6): 67% (5×) and 50%
Pimephales promelas; 0.75 mg/L
  % Mortality, Avg: 75%
  % Mortality, single replicates (1 to 6): 83% (3×) and 67% (3×)
Pimephales promelas; 1.0 mg/L
  % Mortality, Avg: 97%
  % Mortality, single replicates (1 to 6): 100% (5×) and 83%
Pimephales promelas; 2 hours of exposure, pH 6.5, 23° C
  LC50: 0.48 mg/L (≈ 0.655 µM)
